The conditions of data set [1]: single oral dose, presence of fatty food; cited from earlier work.
Data set [2] is described as follows: Particle size of atovaquone particles, light scattering (Malvern Mastersizer). Type of data set: physicochemical. Particulars: milled atovaquone particles before formulation. The text has this: Conventionally known particle size analysis methods can be used suitably for determining the particle size. For example, particle size measurement can be done using light-scattering methods and turbidimetric methods, sedimentation methods, such as pipette analysis technique using an Andreassen pipette, sedimentation scales, photosedimentometers and sedimentation in a centrifugal force field, pulse methods, for example using a Coulter counter, or sorting by means of gravitational or centrifugal force.
The term “d9o value” means at least 90% of atovaquone particles have volume diameter less than specified value when measured by a light scattering method, for example, Malvern Mastersizer.
Atovaquone was air jet milled using at inlet feeder air pressure of 6 kg/cm2 and inlet miller air pressure of 8 kg/cm2 at the rate of 100 g/hour. After one cycle the contents were again milled through air jet mill for second cycle to obtain the desired particle size.

For data set [3] the following is noted: cited from earlier work.

With `O=C1C(O)=C(C2CCC(c3ccc(Cl)cc3)CC2)C(=O)c2ccccc21` (stereo not shown) [Atovaquone, 2-[4-(4-chlorophenyl)cyclohexyl]-3-hydroxy-1,4-naphthoquinone], the “effect of fatty food on absorption” value in data set [1] was “increased about threefold”. In data set [2], this molecule showed a d90 particle size of 5.34 μm. In addition, in data set [2] (measured by Malvern), the d50 particle size stood at 2.42 μm. Besides, the aqueous solubility result in data set [3] was “low aqueous solubility”.

These data come from patent US20080241254A1, “PHARMACEUTICAL COMPOSITION COMPRISING ATOVAQUONE PARTICLES” (priority 2007, published 2008).
